Patent US20150038417A1, “GLP-1 Agonists” (Novo Nordisk A/S, priority 2011, published 2015)

Tested on: Normal male Sprague Dawley rats
Assay: Effect of liraglutide on alcohol consumption (two-bottle choice: water vs 10% alcoholic drink)
Assay type: in vivo, rat
Source text: Certain strains of rats are alcohol dependent and consume large amounts of alcohol if given the choice.
Normal male Sprague Dawley rats were housed individually and fed normal rat chow. Each rat had access to two drinking bottles, one of them containing water and one of them containing a 10% alcoholic drink (diluted Toffee liquor from ALDI®). The rats were acclimatised to the alcoholic drink for a least one week. Consumption of water and the alcoholic drink were continuously recorded on line using the BIOdaq food and water intake monitoring system http://www.bodaq.com/®.
Basal water and alcoholic drink consumption was recorded on a 24 h daily basis. After this had stabilised, consumption of water and alcoholic drink was recorded over a 24 h period. […] Water and alcohol consumption were recorded for 24 h after injection.

Liraglutide (HAEGTFTSDVSSYLEGQAAKEFIAWLVRGRG; chains of the INN, looked up)
Accumulated fluid intake over 24 h, alcohol (10% alcoholic drink), after Liraglutide (Mean ± SEM) (30 μg/kg liraglutide s.c., single dose, 24 h after injection, n=8, same group before dosing 25.6 ± 0.6 g, p < 0.001, paired t-test): 16.1 ± 1.3 g | Effect on 24 h intake of alcoholic drink and water (in words) (30 μg/kg liraglutide s.c., before vs after administration): significantly and selectively reduced intake of alcoholic drink and not water | Alcohol intake compared with vehicle treated rats (in words) (rats offered to choose between alcohol and water): significantly reduces the alcohol intake
